From the supplement of paper PMC10307832

Columns and labels:
Experiment in all cases: relative viability (nuclei count vs DMSO), 5 days (fraction); higher = more cells survive
[1] = compound: CC1=NC=CC(=C1)C2=CC=C(C=C2)CC(=O)NC3=CC=C(C=C3)C4=CN=CC=C4 [Wnt-C59] + CC(C)C[C@H](NC(=O)[C@H](Cc1ccccc1)NC(=O)c1cnccn1)B(O)O [Bortezomib] (partner 0.002 µM)
Procedure, shortened: (§1)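 Lung cancer cell lines were pin-tool dosed in 1536-well plates on the day after seeding, with either a lone drug or a fixed anchor-drug dose plus five library-drug doses (not always all listed) in √10 steps. Nuclei were counted on 4× images after 5 days. Relative viability is the ratio of treated-well to vehicle-well nuclei counts, with each value a median of duplicate plates.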

[2] = compound: CC1=NC=CC(=C1)C2=CC=C(C=C2)CC(=O)NC3=CC=C(C=C3)C4=CN=CC=C4 [Wnt-C59] + C[C@]1(O)C[C@@H](c2nc(-c3ccc4ccc(-c5ccccc5)nc4c3)c3c(N)nccn32)C1 [Linsitinib] (partner 1 µM)
Procedure, shortened: as §1

[3] = compound: CS(=O)(=O)CCNCc1ccc(-c2ccc3ncnc(Nc4ccc(OCc5cccc(F)c5)c(Cl)c4)c3c2)o1 [Lapatinib] + C[C@]1(O)C[C@@H](c2nc(-c3ccc4ccc(-c5ccccc5)nc4c3)c3c(N)nccn32)C1 [Linsitinib] (partner 1 µM)
Procedure, shortened: as §1

[4] = compound: CC1=NC=CC(=C1)C2=CC=C(C=C2)CC(=O)NC3=CC=C(C=C3)C4=CN=CC=C4 [Wnt-C59] + CC1(C)CCC(c2ccc(Cl)cc2)=C(CN2CCN(c3ccc(C(=O)NS(=O)(=O)c4ccc(N[C@H](CCN5CCOCC5)CSc5ccccc5)c(S(=O)(=O)C(F)(F)F)c4)cc3)CC2)C1 [Navitoclax] (partner 0.5 µM)
Procedure, shortened: as §1

Row | Cell Line | relative viability ([1]; first compound 0.001 µM) | relative viability ([1]; first compound 0.01 µM) | relative viability ([1]; first compound 0.03162 µM) | relative viability ([1]; first compound 0.1 µM) | relative viability ([2]; first compound 0.001 µM) | relative viability ([2]; first compound 0.01 µM) | relative viability ([2]; first compound 0.03162 µM) | relative viability ([2]; first compound 0.1 µM) | relative viability ([3]; first compound 0.02 µM) | relative viability ([3]; first compound 0.06325 µM) | relative viability ([3]; first compound 0.2 µM) | relative viability ([3]; first compound 0.6325 µM) | relative viability ([3]; first compound 2 µM) | relative viability ([4]; first compound 0.001 µM) | relative viability ([4]; first compound 0.01 µM) | relative viability ([4]; first compound 0.03162 µM) | relative viability ([4]; first compound 0.1 µM)
1 | HCC-44 | 0.948 | 0.886 | 0.903 | 0.887 | 0.745 | 0.641 | 0.665 | 0.644 | 0.709 | 0.648 | 0.628 | 0.627 | 0.493 | 1.01 | 0.904 | 1.02 | 0.954
2 | HCC-78 | 0.571 | 0.515 | 0.609 | 0.422 | 0.507 | 0.498 | 0.576 | 0.584 | – | 0.383 | 0.461 | 0.441 | 0.448 | 0.781 | 0.729 | 0.731 | 0.452
3 | HCC-366 | 1.06 | 0.98 | 1.16 | 1.07 | 0.697 | 0.582 | 0.717 | 0.595 | – | 0.404 | 0.702 | 0.746 | 0.472 | 1.06 | 0.926 | 0.932 | 1.01
4 | HCC-827 | 1.05 | 1.14 | 0.97 | 1.05 | 1 | 0.966 | 0.977 | 0.884 | 0.944 | 0.986 | 0.928 | 1.05 | 0.936 | 1.08 | 1.04 | 1.04 | 1.02
5 | HOP-62 | 0.826 | 0.752 | 0.658 | 0.931 | 1.09 | 1.1 | 1.14 | 0.95 | – | 0.923 | 0.91 | 0.857 | 1.01 | 1.05 | 1.04 | 0.98 | 0.903
6 | IA-LM | 0.942 | 0.713 | 0.91 | 0.724 | 0.67 | 0.549 | 0.621 | 0.533 | 0.655 | 0.605 | 0.583 | 0.541 | 0.792 | 0.851 | 0.751 | 0.718 | 0.751
7 | LC-2-ad | 1.1 | 1.03 | 1.11 | 1.01 | 0.864 | 0.811 | 0.944 | 0.776 | – | 0.817 | 0.799 | 0.694 | 0.585 | 0.478 | 0.349 | 0.614 | 0.406
8 | LCLC-97TM1 | 0.608 | 0.878 | 0.761 | 0.919 | 0.182 | 0.171 | 0.176 | 0.156 | – | – | 0.186 | 0.198 | 0.187 | 0.429 | 0.445 | 0.505 | 0.264
9 | LCLC-103H | 1.04 | 1.12 | 1.06 | 1.1 | 1.08 | 1.08 | 0.986 | 1.09 | – | 0.978 | 0.998 | 0.955 | 1.08 | – | – | – | –
10 | LK-2 | – | – | – | – | 0.529 | 0.708 | 0.563 | 0.582 | 0.704 | 0.487 | 0.377 | 0.66 | 0.575 | 0.884 | 0.972 | 1.02 | 0.868
11 | NCI-H358 | – | – | – | – | 0.83 | 0.641 | 0.923 | 0.682 | 0.548 | – | 0.512 | 0.329 | 0.277 | – | – | – | –
12 | NCI-H650 | 0.85 | 1.08 | 0.72 | 0.888 | 0.919 | 0.916 | 0.828 | 0.926 | – | 0.841 | 0.793 | 0.567 | 0.875 | – | – | – | –
13 | NCI-H661 | 0.616 | 0.758 | 0.903 | 0.805 | 0.581 | 0.621 | 0.548 | 0.723 | 0.616 | 0.485 | 0.436 | 0.454 | 0.266 | – | – | – | –
14 | NCI-H1395 | – | – | – | – | 0.972 | 1.06 | 1.09 | 1.03 | – | 1.01 | 1.03 | 1.03 | 1.01 | 1.24 | 1.1 | 1.08 | 1.32
15 | NCI-H1563 | 0.863 | 0.917 | 0.901 | 0.835 | 1.24 | 1.2 | 1.34 | 1.13 | 1.12 | 1.13 | 1.03 | 1.2 | 1.12 | – | – | – | –
16 | NCI-H1650 | 0.21 | 0.219 | 0.205 | 0.219 | – | – | – | – | – | – | – | – | – | 1.35 | 1.41 | 1.27 | 1.1
17 | NCI-H1793 | – | – | – | – | 0.926 | 0.729 | 0.875 | 0.865 | – | – | – | 0.605 | 0.515 | 0.397 | 0.398 | 0.378 | 0.95
18 | NCI-H1944 | – | – | – | – | 1.13 | 1.11 | 1.26 | 1.12 | – | – | 0.959 | 0.767 | 0.656 | 1.06 | 0.96 | 1.07 | 0.964
19 | NCI-H2170 | – | – | – | – | – | – | – | – | – | – | – | – | – | 0.608 | 0.35 | 0.595 | 0.527
20 | SK-MES-1 | – | – | – | – | 1.11 | 1.1 | 1.02 | 1.08 | 1.12 | 1.01 | 0.97 | 0.69 | 0.663 | 1.2 | 1.17 | 1.3 | 1.16
